The record followed here is US12344610B2, “APOL1 inhibitors and methods of use” (Maze Therapeutics, Inc., priority 2022, dated 2025).

The structures appear in SMILES notation.

The target of this experiment is T1, APOL1 G2 (Homo sapiens, UniProt O14791, DEL388-389).
T1 construct: expressed in transfected cells; host or cells: HEK293 T-REx clonal line stably expressing GCaMP6f (HEK T-REx/GCaMP6f/APOL1 G2 K6.3), doxycycline induced
T1 sequence (O14791 with tags, fused parts or gaps DEL388-389): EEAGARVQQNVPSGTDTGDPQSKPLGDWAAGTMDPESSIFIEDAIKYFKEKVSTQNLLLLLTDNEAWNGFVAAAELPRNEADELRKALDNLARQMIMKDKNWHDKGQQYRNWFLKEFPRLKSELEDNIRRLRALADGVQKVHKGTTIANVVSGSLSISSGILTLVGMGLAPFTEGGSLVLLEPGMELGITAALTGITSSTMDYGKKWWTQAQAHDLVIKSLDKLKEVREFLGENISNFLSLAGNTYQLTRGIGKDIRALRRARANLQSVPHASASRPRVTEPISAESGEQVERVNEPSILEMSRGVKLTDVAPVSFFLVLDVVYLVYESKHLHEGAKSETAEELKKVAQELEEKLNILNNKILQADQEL
Briefly: APOL1-mediated calcium transport (calcium influx) assay, HEK T-REx/GCaMP6f/APOL1 G2 K6.3 cells, FLIPR TETRA. Conditions: prevention of calcium influx; geometric mean of at least 2 assay runs; † = average of a technical replicate from a single assay run. The format is cell-based. In outline:
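A HEK293 T-REx clone stably expressing GCaMP6f had APOL1 G2 induced with doxycycline (20 ng/mL solution added) for 6 h. Cells were then washed into Ca2+-free Tyrode's buffer (pH 7.4) and preincubated with compounds (duplicate 8-point) for 10 min at room temperature. Ca2+ injection to 5 mM final produced FLIPR GCaMP fluorescence, giving AC50 for influx inhibition (geometric mean, ≥2 runs).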
As usually defined, the AC50 is the concentration at which the activity in the assay is half-maximal. As to `CN=S(C)(=O)c1ccc(OCCN2CCC3(CC2)C(=O)Nc2ccc(C#N)cc23)cc1` (stereo not drawn) [Compound 150, 1′-(2-{4-[methyl(methylimino)oxo-λ^6-sulfanyl]phenoxy}ethyl)-2-oxo-1,2-dihydrospiro[indole-3,4′-piperidine]-5-carbonitrile], the half-maximal activity concentration (AC50) was 629 nM.
For `CN1CCc2cc(OCCN3CCC4(CC3)C(=O)Nc3ccc(Cl)cc34)ccc2S1(=O)=O` [Compound 153, 6-(2-{5-chloro-2-oxo-1,2-dihydrospiro[indole-3,4′-piperidin]-1′-yl}ethoxy)-2-methyl-3,4-dihydro-2H-1λ^6,2-benzothiazine-1,1-dione] the value was 826 nM; for `CN1CCc2cc(OCCN3CCC4(CC3)C(=O)Nc3ccc(C#N)cc34)ccc2S1(=O)=O` [Compound 154, 1′-{2-[(2-methyl-1,1-dioxo-3,4-dihydro-2H-1λ^6,2-benzothiazin-6-yl)oxy]ethyl}-2-oxo-1,2-dihydrospiro[indole-3,4′-piperidine]-5-carbonitrile], 869 nM.
For `CS(=O)(=O)c1ccc(OCCN2CCC3(CC2)C(=O)Nc2ccc(Cl)cc23)cc1Cl` [Compound 155, 5-chloro-1′-[2-(3-chloro-4-methanesulfonylphenoxy)ethyl]-1,2-dihydrospiro[indole-3,4′-piperidin]-2-one] the value was 452 nM.
Take `CS(=O)(=O)c1ccc(OCCN2CCC3(CC2)C(=O)Nc2ccc(C#N)cc23)cc1Cl` [Compound 156, 1′-[2-(3-chloro-4-methanesulfonylphenoxy)ethyl]-2-oxo-1,2-dihydrospiro[indole-3,4′-piperidine]-5-carbonitrile]: the AC50 is 468 nM.
As to `CC(C)(C#N)c1ccc(OCCN2CCC3(CC2)C(=O)Nc2ccc(C#N)cc23)cc1` [Compound 157, 1′-{2-[4-(1-cyano-1-methylethyl)phenoxy]ethyl}-2-oxo-1,2-dihydrospiro[indole-3,4′-piperidine]-5-carbonitrile], the AC50 was 933 nM.
Take `CC1(S(=O)(=O)c2ccc(OCCN3CCC4(CC3)C(=O)Nc3ccc(Cl)cc34)cn2)COC1` [Compound 158, 5-chloro-1′-[2-({6-[(3-methyloxetan-3-yl)sulfonyl]pyridin-3-yl}oxy)ethyl]-1,2-dihydrospiro[indole-3,4′-piperidin]-2-one]: the half-maximal activity concentration (AC50) worked out at 845 nM.
Regarding `CS(=O)(=O)C1(c2ccc(OCCN3CCC4(CC3)C(=O)N(CCO)c3ccc(Cl)cc34)cc2)COC1` [Compound 160, 5-chloro-1-(2-hydroxyethyl)-1′-{2-[4-(3-methanesulfonyloxetan-3-yl)phenoxy]ethyl}-1,2-dihydrospiro[indole-3,4′-piperidin]-2-one], the half-maximal activity concentration (AC50) was determined as 898 nM.
On to `Cc1cc(OCCN2CCC3(CC2)C(=O)Nc2ccc(Cl)cc23)cnc1S(C)(=O)=O` [Compound 161, 5-chloro-1′-{2-[(6-methanesulfonyl-5-methylpyridin-3-yl)oxy]ethyl}-1,2-dihydrospiro[indole-3,4′-piperidin]-2-one], for which the AC50 came to 539 nM.
As for `O=C1CCc2cc(OCCN3CCC4(CC3)C(=O)Nc3ccc(Cl)cc34)ccc2N1CCO` [Compound 162, 5-chloro-1′-(2-{[1-(2-hydroxyethyl)-2-oxo-1,2,3,4-tetrahydroquinolin-6-yl]oxy}ethyl)-1,2-dihydrospiro[indole-3,4′-piperidin]-2-one], the AC50 worked out at 603 nM.
With `CS(=O)(=O)c1ccc(OCCN2CCC3(CC2)C(=O)Nc2ccc(Cl)cc23)cc1OC(F)F` [Compound 163, 5-chloro-1′-{2-[3-(difluoromethoxy)-4-methanesulfonylphenoxy]ethyl}-1,2-dihydrospiro[indole-3,4′-piperidin]-2-one] the figure was 528 nM; with `CS(=O)(=O)c1ccc(OCCN2CCC3(CC2)C(=O)Nc2ccc(C#N)cc23)cc1OC(F)F` [Compound 164, 1′-{2-[3-(difluoromethoxy)-4-methanesulfonylphenoxy]ethyl}-2-oxo-1,2-dihydrospiro[indole-3,4′-piperidine]-5-carbonitrile], 555 nM.
